Assay results taken from patent US11149031B2, “Substituted N-(3-fluoropropyl)-pyrrolidine compounds, processes for their preparation and therapeutic uses thereof” (SANOFI, priority 2016, dated 2021).

Experiments:
[1] = tested on: MCF7 cells expressing mutant estrogen receptor Tyr 537 Ser; assay: Test B: cell proliferation/viability assay (CellTiter-Glo) on MCF7 Tyr 537 Ser mutant; format: cell-based; conditions: Homo sapiens, MCF7, 168 h, MCF7 cells expressing ER Tyr 537 Ser mutant, 7 days of compound exposure, read-out: proliferation MCF7 Y537S IC50
Procedure, shortened: (§1)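 Viability is measured in MCF7 cells, either parental or engineered to depend on mutant estrogen receptor. Compounds act for 7 days at final concentrations from 3 to 0.000001 μM in hormone-depleted medium, with ATP luminescence as the read-out.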

[2] = target: His6-ERα298-554 Y537S mutant (ERα ligand-binding domain) (Homo sapiens (Human), UniProt P03372, Y537S); assay: Test A: biochemical antagonist activity, LanthaScreen TR-FRET ERα coactivator assay, Y537S mutant; conditions: asterisk (*): protocol using 10 nM estradiol; read-out: Antagonism Y537S IC50
Sequence of His6-ERα298-554 Y537S mutant (ERα ligand-binding domain) (P03372 298-554 Y537S): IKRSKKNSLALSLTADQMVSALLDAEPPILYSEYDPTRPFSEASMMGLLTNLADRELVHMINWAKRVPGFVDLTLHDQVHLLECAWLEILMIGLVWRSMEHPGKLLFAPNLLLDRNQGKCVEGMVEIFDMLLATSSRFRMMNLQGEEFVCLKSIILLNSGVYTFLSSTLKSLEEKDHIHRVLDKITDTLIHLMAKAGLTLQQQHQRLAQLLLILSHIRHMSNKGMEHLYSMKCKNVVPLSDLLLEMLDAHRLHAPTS
Procedure, shortened: (§2)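 His6-ERα LBD (0.5 nM) with 0.5 nM Tb-anti-His6 antibody, 250 nM PGC1a peptide and 3 nM (or 10 nM) estradiol in 100 mM potassium phosphate pH 7.4 with 5 mM DTT, incubated overnight at room temperature with compound.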

[3] = target: His6-ERα298-554 D538G mutant (ERα ligand-binding domain) (Homo sapiens (Human), UniProt P03372, D538G); assay: Test A: biochemical antagonist activity, LanthaScreen TR-FRET ERα coactivator assay, D538G mutant; conditions: asterisk (*): protocol using 10 nM estradiol; read-out: Antagonism D538G IC50
Sequence of His6-ERα298-554 D538G mutant (ERα ligand-binding domain) (P03372 298-554 D538G): as the sequence (P03372 298-554 Y537S) above, with S240Y, D241G counted along it
Procedure, shortened: as §2

[4] = tested on: MCF7 cells expressing mutant estrogen receptor Asp 538 Gly; assay: Test B: cell proliferation/viability assay (CellTiter-Glo) on MCF7 Asp 538 Gly mutant; format: cell-based; conditions: Homo sapiens, MCF7, 168 h, MCF7 cells expressing ER Asp 538 Gly mutant, 7 days of compound exposure, read-out: proliferation MCF7 D538G IC50
Procedure, shortened: as §1

[5] = target: ERα in MCF7 cells (Homo sapiens (Human), UniProt P03372); assay: Test C: estrogen receptor degradation activity, ERα in cell western assay in MCF7 cells; format: cell-based; conditions: for DC50: 4 hours post compound addition, ERα in cell western, read-out: Degradation IC50; for % Degradation at 3 μM: 4 hours, relative to fulvestrant
Sequence of ERα in MCF7 cells (P03372 whole entry): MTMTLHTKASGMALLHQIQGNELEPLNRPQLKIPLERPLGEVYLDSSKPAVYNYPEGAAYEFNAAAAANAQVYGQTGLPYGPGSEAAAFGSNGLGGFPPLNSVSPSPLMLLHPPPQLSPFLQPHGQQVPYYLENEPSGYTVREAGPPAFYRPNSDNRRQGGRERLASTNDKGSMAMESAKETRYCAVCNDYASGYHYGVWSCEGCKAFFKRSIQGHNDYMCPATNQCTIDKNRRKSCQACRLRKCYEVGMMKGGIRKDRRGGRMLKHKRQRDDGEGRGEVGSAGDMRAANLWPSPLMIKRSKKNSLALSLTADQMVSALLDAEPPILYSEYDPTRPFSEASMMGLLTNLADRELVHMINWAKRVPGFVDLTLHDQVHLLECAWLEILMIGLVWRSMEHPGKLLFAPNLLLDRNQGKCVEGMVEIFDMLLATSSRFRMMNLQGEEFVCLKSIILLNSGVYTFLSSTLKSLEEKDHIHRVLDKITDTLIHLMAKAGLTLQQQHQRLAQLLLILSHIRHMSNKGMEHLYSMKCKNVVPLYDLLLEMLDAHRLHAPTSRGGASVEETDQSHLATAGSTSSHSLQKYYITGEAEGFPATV
Procedure, shortened: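 Degradation of ERα was gauged in MCF7 cells after 4 h treatment, by fluorescence immunostaining normalised against DNA content.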

[6] = tested on: MCF7 cells (breast tumor cells) WT; assay: Test B: cell proliferation/viability assay (CellTiter-Glo) on MCF7 WT; format: cell-based; conditions: Homo sapiens, MCF7, 168 h, 7 days of compound exposure
Procedure, shortened: as §1

[7] = target: His6-ERα298-554 WT (ERα ligand-binding domain) (Homo sapiens (Human), UniProt P03372); assay: Test A: biochemical antagonist activity, LanthaScreen TR-FRET ERα coactivator assay, WT; conditions: asterisk (*): protocol using 10 nM estradiol; read-out: Antagonism WT IC50
Sequence of His6-ERα298-554 WT (ERα ligand-binding domain) (P03372 298-554): as the sequence (P03372 298-554 Y537S) above, with S240Y counted along it
Procedure, shortened: as §2

[2H]C([2H])([2H])Oc1ccc(C2=C(c3ccc(O[C@H]4CCN(CCCF)C4)cc3)c3ccc(O)cc3SCC2)c(F)c1 [Example 209, 5-[4-[(3S)-1-(3-fluoropropyl)pyrrolidin-3-yl]oxyphenyl]-4-[2-fluoro-4-(trideuteriomethoxy)phenyl]-2,3-dihydro-1-benzothiepin-8-ol]
IC50 [1]: 4 nM
IC50 [2]: 20 nM
IC50 [3]: 35 nM
IC50 [4]: 0.7 nM
DC50 [5]: 0.4 nM
% Degradation at 3 μM [5]: 92%
IC50 [6]: 0.3 nM
IC50 [7]: 2 nM

Cc1ccc(C2=C(c3ccc(O[C@H]4CCN(CCCF)C4)cc3)c3ccc(C(=O)O)cc3SCC2)c(F)c1 [Example 210, 4-(2-fluoro-4-methyl-phenyl)-5-[4-[(3S)-1-(3-fluoropropyl)pyrrolidin-3-yl]oxyphenyl]-2,3-dihydro-1-benzothiepine-8-carboxylic acid]
IC50 [1]: 15 nM
IC50 [2]: 1330 nM
IC50 [3]: 2220 nM
IC50 [4]: 1 nM
DC50 [5]: 2 nM
% Degradation at 3 μM [5]: 89%
IC50 [6]: 0.8 nM
IC50 [7]: 103 nM

Cc1cc(C2=C(c3ccc(O[C@H]4CCN(CCCF)C4)cc3)c3ccc(C(=O)O)cc3SCC2)ccc1Cl [Example 211, 4-(4-chloro-3-methyl-phenyl)-5-[4-[(3S)-1-(3-fluoropropyl)pyrrolidin-3-yl]oxyphenyl]-2,3-dihydro-1-benzothiepine-8-carboxylic acid]
IC50 [1]: 10 nM
IC50 [2]: 475 nM
IC50 [3]: 964 nM
IC50 [4]: 0.6 nM
DC50 [5]: 0.3 nM
% Degradation at 3 μM [5]: 93%
IC50 [6]: 0.4 nM
IC50 [7]: 39 nM

Oc1ccc2c(c1)SCCC(c1ccc(OC(F)(F)F)cc1F)=C2c1ccc(O[C@H]2CCN(CCCF)C2)cc1 [Example 212, 5-[4-[(3S)-1-(3-fluoropropyl)pyrrolidin-3-yl]oxyphenyl]-4-[2-fluoro-4-(trifluoromethoxy)phenyl]-2,3-dihydro-1-benzothiepin-8-ol]
IC50 [1]: 3 nM
IC50 [2]: 412 nM
IC50 [3]: 800 nM
IC50 [4]: 0.5 nM
DC50 [5]: 2 nM
% Degradation at 3 μM [5]: 90%
IC50 [6]: 0.4 nM
IC50 [7]: 34 nM

Oc1ccc2c(c1)SCCC(c1ccc(OC(F)F)cc1F)=C2c1ccc(O[C@H]2CCN(CCCF)C2)cc1 [Example 213, 4-[4-(difluoromethoxy)-2-fluoro-phenyl]-5-[4-[(3S)-1-(3-fluoropropyl)pyrrolidin-3-yl]oxyphenyl]-2,3-dihydro-1-benzothiepin-8-ol]
IC50 [1]: 2 nM
IC50 [2]: 55 nM
IC50 [3]: 96 nM
IC50 [4]: 0.2 nM
DC50 [5]: 0.9 nM
% Degradation at 3 μM [5]: 86%
IC50 [6]: 0.3 nM
IC50 [7]: 4 nM

Oc1ccc2c(c1)SCCC(c1ccc(OC(F)(F)F)cc1)=C2c1ccc(O[C@H]2CCN(CCCF)C2)cc1 [Example 214, 5-[4-[(3S)-1-(3-fluoropropyl)pyrrolidin-3-yl]oxyphenyl]-4-[4-(trifluoromethoxy)phenyl]-2,3-dihydro-1-benzothiepin-8-ol]
IC50 [1]: 6 nM
IC50 [2]: 457 nM
IC50 [3]: 539 nM
IC50 [4]: 0.7 nM
DC50 [5]: 1 nM
% Degradation at 3 μM [5]: 82%
IC50 [6]: 0.4 nM
IC50 [7]: 38 nM

Oc1ccc2c(c1)SCCC(c1ccc(F)nc1F)=C2c1ccc(O[C@H]2CCN(CCCF)C2)cc1 [Example 215, 4-(2,6-difluoro-3-pyridyl)-5-[4-[(3S)-1-(3-fluoropropyl)pyrrolidin-3-yl]oxyphenyl]-2,3-dihydro-1-benzothiepin-8-ol]
IC50 [1]: 3 nM
IC50 [2]: 86 nM
IC50 [3]: 190 nM
IC50 [4]: 0.2 nM
DC50 [5]: 0.2 nM
% Degradation at 3 μM [5]: 93%
IC50 [6]: 0.1 nM
IC50 [7]: 8 nM

CC(C)(C)c1ccc(C2=C(c3ccc(O[C@H]4CCN(CCCF)C4)cc3)c3ccc(O)cc3SCC2)cc1 [Example 216, 4-(4-tert-butylphenyl)-5-[4-[(3S)-1-(3-fluoropropyl)pyrrolidin-3-yl]oxyphenyl]-2,3-dihydro-1-benzothiepin-8-ol]
IC50 [1]: 13 nM
IC50 [2]: 543 nM
IC50 [3]: 662 nM
IC50 [4]: 1 nM
DC50 [5]: 0.2 nM
% Degradation at 3 μM [5]: 88%
IC50 [6]: 0.6 nM
IC50 [7]: 33 nM

CCOc1ccc(C2=C(c3ccc(O[C@H]4CCN(CCCF)C4)cc3)c3ccc(O)cc3SCC2)c(F)c1F [Example 217, 4-(4-ethoxy-2,3-difluoro-phenyl)-5-[4-[(3S)-1-(3-fluoropropyl)pyrrolidin-3-yl]oxyphenyl]-2,3-dihydro-1-benzothiepin-8-ol]
IC50 [1]: 5 nM
IC50 [2]: 39 nM
IC50 [3]: 61 nM
IC50 [4]: 0.6 nM
DC50 [5]: 0.2 nM
% Degradation at 3 μM [5]: 87%
IC50 [6]: 0.1 nM
IC50 [7]: 4 nM

Oc1ccc2c(c1)SCCC(c1ccc(OCF)cc1)=C2c1ccc(O[C@H]2CCN(CCCF)C2)cc1 [Example 218, 4-[4-(fluoromethoxy)phenyl]-5-[4-[(3S)-1-(3-fluoropropyl)pyrrolidin-3-yl]oxyphenyl]-2,3-dihydro-1-benzothiepin-8-ol]
IC50 [1]: 1 nM
IC50 [2]: 22 nM
IC50 [3]: 25 nM
IC50 [4]: 0.1 nM
DC50 [5]: 0.2 nM
% Degradation at 3 μM [5]: 78%
IC50 [6]: 0.1 nM
IC50 [7]: 1 nM

Cc1noc(C)c1C1=C(c2ccc(O[C@H]3CCN(CCCF)C3)cc2)c2ccc(O)cc2SCC1 [Example 219, 4-(3,5-dimethylisoxazol-4-yl)-5-[4-[(3S)-1-(3-fluoropropyl)pyrrolidin-3-yl]oxyphenyl]-2,3-dihydro-1-benzothiepin-8-ol]
IC50 [1]: 2 nM
IC50 [2]: 149 nM
IC50 [3]: 233 nM
IC50 [4]: 0.4 nM
DC50 [5]: 0.2 nM
% Degradation at 3 μM [5]: 90%
IC50 [6]: 0.1 nM
IC50 [7]: 12 nM

CCOc1cc(F)c(C2=C(c3ccc(O[C@H]4CCN(CCCF)C4)cc3)c3ccc(O)cc3SCC2)cc1F [Example 220, 4-(4-ethoxy-2,5-difluoro-phenyl)-5-[4-[(3S)-1-(3-fluoropropyl)pyrrolidin-3-yl]oxyphenyl]-2,3-dihydro-1-benzothiepin-8-ol]
IC50 [1]: 5 nM
IC50 [2]: 84 nM
IC50 [3]: 164 nM
IC50 [4]: 0.5 nM
DC50 [5]: 0.2 nM
% Degradation at 3 μM [5]: 89%
IC50 [6]: 0.4 nM
IC50 [7]: 8 nM

CCOc1ccc(C2=C(c3ccc(O[C@H]4CCN(CCCF)C4)cc3)c3ccc(O)cc3SCC2)c(F)c1Cl [Example 221, 4-(3-chloro-4-ethoxy-2-fluoro-phenyl)-5-[4-[(3S)-1-(3-fluoropropyl)pyrrolidin-3-yl]oxyphenyl]-2,3-dihydro-1-benzothiepin-8-ol]
IC50 [1]: 8 nM
IC50 [2]: 133 nM
IC50 [3]: 265 nM
IC50 [4]: 0.6 nM
DC50 [5]: 0.2 nM
% Degradation at 3 μM [5]: 84%
IC50 [6]: 0.5 nM
IC50 [7]: 11 nM

Oc1ccc2c(c1)SCCC(c1ccc(SC(F)(F)F)cc1)=C2c1ccc(O[C@H]2CCN(CCCF)C2)cc1 [Example 222, 5-[4-[(3S)-1-(3-fluoropropyl)pyrrolidin-3-yl]oxyphenyl]-4-[4-(trifluoromethylsulfanyl)phenyl]-2,3-dihydro-1-benzothiepin-8-ol]
IC50 [1]: 1 nM
IC50 [2]: 238 nM
IC50 [3]: 371 nM
IC50 [4]: 0.4 nM
DC50 [5]: 1 nM
% Degradation at 3 μM [5]: 80%
IC50 [6]: 4 nM
IC50 [7]: 18 nM

Nc1ccc(C2=C(c3ccc(O[C@H]4CCN(CCCF)C4)cc3)c3ccc(O)cc3SCC2)c(F)n1 [Example 223, 4-(6-amino-2-fluoro-3-pyridyl)-5-[4-[(3S)-1-(3-fluoropropyl)pyrrolidin-3-yl]oxyphenyl]-2,3-dihydro-1-benzothiepin-8-ol]
IC50 [1]: 0.1 nM
IC50 [2]: 24 nM
IC50 [3]: 42 nM
IC50 [4]: 0.2 nM
DC50 [5]: 0.2 nM
% Degradation at 3 μM [5]: 85%
IC50 [6]: 1 nM
IC50 [7]: 2 nM

CCN(CC)c1ccc(C2=C(c3ccc(O[C@H]4CCN(CCCF)C4)cc3)c3ccc(O)cc3SCC2)c(F)c1 [Example 224, 4-[4-(diethylamino)-2-fluoro-phenyl]-5-[4-[(3S)-1-(3-fluoropropyl)pyrrolidin-3-yl]oxyphenyl]-2,3-dihydro-1-benzothiepin-8-ol]
IC50 [1]: 83 nM
IC50 [2]: 1030 nM
IC50 [3]: 1480 nM
IC50 [4]: 8 nM
DC50 [5]: 3 nM
% Degradation at 3 μM [5]: 85%
IC50 [6]: 3 nM
IC50 [7]: 71 nM
